Assay results reported in patent publication US20250281424A1 (New York Blood Center, Inc, priority 2020, published 2025).
pIC50: −log10 of the molar value.

Target: T1, human PF4 (Homo sapiens, UniProt P02776)
T1 construct: PF4 is a 70 amino acid, lysine-rich 7.8 kDa platelet-specific protein; made in house; host or cells: Escherichia coli BL21DE3 pLysS (pT7-7) and/or Drosophila S2 cells
T1 sequence (P02776 32-101): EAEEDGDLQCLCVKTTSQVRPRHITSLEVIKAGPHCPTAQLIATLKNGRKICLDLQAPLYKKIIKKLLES
Test: Inhibition of PF4 tetramer formation (BS3 cross-linking, SDS-PAGE)
Assay type: biochemical
Settings: for inhibition at 5 µM: 5 μM inhibitor; for inhibition at 5 µM / inhibition at 10 µM / inhibition at 1 µM / inhibition at 3 µM: read-out: % inhibition of PF4 tetramer formation at single concentration of inhibitor; for inhibition at 10 µM: 10 μM inhibitor (column A); for pIC50: read-out: IC50 of PF4 tetramer formation inhibition; for inhibition at 1 µM: 1 μM inhibitor; for inhibition at 3 µM: 3 μM inhibitor (column A)
In short: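 Recombinant human wild-type PF4 (E. coli-expressed, heparin-purified), 10 μg/ml in PBS, incubated with compound 15 min at 37° C or 60 min at room temperature, then cross-linked with 0.2 mM BS3 for 30 min at room temperature. Reducing 12% SDS-PAGE; bands quantified as % tetramer, trimer, dimer, monomer versus compound-free control.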

inhibition at 1 µM | inhibition at 3 µM | Compound | inhibition at 5 µM | inhibition at 10 µM | pIC50
– | – | COC(=O)CCCC(=O)C1C(=O)c2ccc(C(=O)c3ccc4c(c3)C(=O)C(C(=O)CCCC(=O)OC)C4=O)cc2C1=O (centres unmarked) [Example 225, methyl 5-{5-[2-(5-methoxy-5-oxopentanoyl)-1,3-dioxo-2,3-dihydro-1H-indene-5-carbonyl]-1,3-dioxo-2,3-dihydro-1H-inden-2-yl}-5-oxopentanoate] | 87% | 90% | 5.49
– | – | O=C(c1ccc2c(c1)C(=O)C(C(=O)NCc1ccc(F)cc1)C2=O)c1ccc2c(c1)C(=O)C(C(=O)NCc1ccc(F)cc1)C2=O (centres unmarked) [Example 26, 5,5′-carbonylbis(1,3-dioxo-indan-2-carboxylic acid ((4-fluorophenyl)methyl)-amide)] | 59% | 66% | 5.44
– | – | COCCCNC(=O)C1C(=O)c2ccc(C(=O)c3ccc4c(c3)C(=O)C(C(=O)NCCCOC)C4=O)cc2C1=O (centres unmarked) [Example 88, N-(3-methoxypropyl)-5-{2-[(3-methoxypropyl)carbamoyl]-1,3-dioxo-2,3-dihydro-1H-indene-5-carbonyl}-1,3-dioxo-2,3-dihydro-1H-indene-2-carboxamide] | – | – | 4.68
– | – | COCCCNC(=O)C1C(=O)c2ccc(S(=O)(=O)c3ccc4c(c3)C(=O)C(C(=O)NCCCOC)C4=O)cc2C1=O (centres unmarked) [Example 90, N-(3-methoxypropyl)-5-({2-[(3-methoxypropyl)carbamoyl]-1,3-dioxo-2,3-dihydro-1H-inden-5-yl}sulfonyl)-1,3-dioxo-2,3-dihydro-1H-indene-2-carboxamide] | – | – | 5.38
19% | 36% | COCC(=O)C1C(=O)c2ccc(Oc3ccc4c(c3)C(=O)C(C(=O)COC)C4=O)cc2C1=O (centres unmarked) [Example 249, 2-(2-methoxyacetyl)-5-{[2-(2-methoxyacetyl)-1,3-dioxo-2,3-dihydro-1H-inden-5-yl]oxy}-2,3-dihydro-1H-indene-1,3-dione] | – | – | 5.52
4% | 9% | COCCOCCOCCNC(=O)C1C(=O)c2ccc(Oc3ccc4c(c3)C(=O)C(C(=O)NCCOCCOCCOC)C4=O)cc2C1=O (centres unmarked) [Example 384, N-{2-[2-(2-methoxyethoxy)ethoxy]ethyl}-5-{[2-({2-[2-(2-methoxyethoxy)ethoxy]ethyl}carbamoyl)-1,3-dioxo-2,3-dihydro-1H-inden-5-yl]oxy}-1,3-dioxo-2,3-dihydro-1H-indene-2-carboxamide] | – | – | –
3% | 6% | O=C1c2ccc(Oc3ccc4c(c3)C(=O)C(C(=O)C3CCCS3(=O)=O)C4=O)cc2C(=O)C1C(=O)C1CCCS1(=O)=O (centres unmarked) [Example 370, 2-(5-{[2-(1,1-dioxo-1λ^6-thiolane-2-carbonyl)-1,3-dioxo-2,3-dihydro-1H-inden-5-yl]oxy}-1,3-dioxo-2,3-dihydro-1H-indene-2-carbonyl)-1λ^6-thiolane-1,1-dione] | – | – | –
23% | 59% | O=C(NC1CCS(=O)(=O)C1)C1C(=O)c2ccc(S(=O)(=O)c3ccc4c(c3)C(=O)C(C(=O)NC3CCS(=O)(=O)C3)C4=O)cc2C1=O (centres unmarked) [Example 360, N-(1,1-dioxo-1λ^6-thiolan-3-yl)-5-({2-[(1,1-dioxo-1λ^6-thiolan-3-yl)carbamoyl]-1,3-dioxo-2,3-dihydro-1H-inden-5-yl}sulfonyl)-1,3-dioxo-2,3-dihydro-1H-indene-2-carboxamide] | – | – | –
– | – | O=C(c1ccc2c(c1)C(=O)C(C(=O)COc1ccccc1)C2=O)c1ccc2c(c1)C(=O)C(C(=O)COc1ccccc1)C2=O (centres unmarked) [Example 143, 5,5-[1,3-dioxo-2-(2-phenoxyacetyl)-2,3-dihydro-1H-indene-5-carbonyl]-2-(2-phenoxyacetyl)-2,3-dihydro-1H-indene-1,3-dione] | – | – | 5.15
– | – | CCCCC(=O)C1C(=O)c2ccc(C(=O)c3ccc4c(c3)C(=O)C(C(=O)CCCC)C4=O)cc2C1=O (centres unmarked) [Example 153, 5-(1,3-dioxo-2-pentanoyl-2,3-dihydro-1H-indene-5-carbonyl)-2-pentanoyl-2,3-dihydro-1H-indene-1,3-dione] | 100% | 100% | 5.62
– | – | CC(C)(C)OC(=O)NCC(=O)C1C(=O)c2ccc(C(=O)c3ccc4c(c3)C(=O)C(C(=O)CNC(=O)OC(C)(C)C)C4=O)cc2C1=O (centres unmarked) [Example 173, tert-butyl N-(2-{5-[2-(2-{[(tert-butoxy)carbonyl]amino}acetyl)-1,3-dioxo-2,3-dihydro-1H-indene-5-carbonyl]-1,3-dioxo-2,3-dihydro-1H-inden-2-yl}-2-oxoethyl) carbamate] | 87% | 97% | 5.66
– | – | CC(C)(C)OC(=O)N1CC=C[C@H]1C(=O)C1C(=O)c2ccc(C(=O)c3ccc4c(c3)C(=O)C(C(=O)[C@@H]3C=CCN3C(=O)OC(C)(C)C)C4=O)cc2C1=O (stereo partly drawn) [Example 122, tert-butyl (2S)-2-(5-{2-[(2S)-1-[(tert-butoxy)carbonyl]-2,5-dihydro-1H-pyrrole-2-carbonyl]-1,3-dioxo-2,3-dihydro-1H-indene-5-carbonyl}-1,3-dioxo-2,3-dihydro-1H-indene-2-carbonyl)-2,5-dihydro-1H-pyrrole-1-carboxylate] | – | – | ~5.52
23% | 31% | COCCOCCOCCNC(=O)C1C(=O)c2ccc(C(=O)c3ccc4c(c3)C(=O)C(C(=O)NCCOCCOCCOC)C4=O)cc2C1=O (centres unmarked) [Example 388, N-{2-[2-(2-methoxyethoxy)ethoxy]ethyl}-5-[2-({2-[2-(2-methoxyethoxy)ethoxy]ethyl}carbamoyl)-1,3-dioxo-2,3-dihydro-1H-indene-5-carbonyl]-1,3-dioxo-2,3-dihydro-1H-indene-2-carboxamide] | – | – | –
– | – | C[C@@H]1CC[C@@H](C(=O)C2C(=O)c3ccc(-c4ccc5c(c4)C(=O)C(C(=O)[C@@H]4CC[C@@H](C)N4C(=O)OC(C)(C)C)C5=O)cc3C2=O)N1C(=O)OC(C)(C)C (stereo partly drawn) [Example 214, tert-butyl (2S,5R)-2-{2′-[(2S,5R)-1-[(tert-butoxy)carbonyl]-5-methylpyrrolidine-2-carbonyl]-1,1′,3,3′-tetraoxo-1H,1′H,2H,2′H,3H,3′H-[5,5′-biindene]-2-carbonyl}-5-methylpyrrolidine-1-carboxylate] | – | – | 5.40
41% | 60% | O=C(NC1CCS(=O)(=O)C1)C1C(=O)c2ccc(Oc3ccc4c(c3)C(=O)C(C(=O)NC3CCS(=O)(=O)C3)C4=O)cc2C1=O (centres unmarked) [Example 366, N-(1,1-dioxo-1λ^6-thiolan-3-yl)-5-({2-[(1,1-dioxo-1λ^6-thiolan-3-yl)carbamoyl]-1,3-dioxo-2,3-dihydro-1H-inden-5-yl}oxy)-1,3-dioxo-2,3-dihydro-1H-indene-2-carboxamide] | – | – | 6.26
– | – | COC1CCC(C(=O)C2C(=O)c3ccc(S(=O)(=O)c4ccc5c(c4)C(=O)C(C(=O)C4CCC(OC)CC4)C5=O)cc3C2=O)CC1 (centres unmarked) [Example 151, 2-(4-methoxycyclohexanecarbonyl)-5-{[2-(4-methoxycyclohexanecarbonyl)-1,3-dioxo-2,3-dihydro-1H-inden-5-yl]sulfonyl}-2,3-dihydro-1H-indene-1,3-dione] | 89% | 100% | ~5.22
– | – | CCOC(=O)CCNC(=O)C1C(=O)c2ccc(C(=O)c3ccc4c(c3)C(=O)C(C(=O)NCCC(=O)OCC)C4=O)cc2C1=O (centres unmarked) [Example 27, 5,5′-carbonylbis(3-[(1,3-dioxo-indane-2-carbonyl)-amino]-propionic acid ethyl ester)] | – | – | 4.97
– | – | O=C(Nc1ccc(I)cc1)C1C(=O)c2ccc(S(=O)(=O)c3ccc4c(c3)C(=O)C(C(=O)Nc3ccc(I)cc3)C4=O)cc2C1=O (centres unmarked) [Example 95, N-(4-iodophenyl)-5-({2-[(4-iodophenyl)carbamoyl]-1,3-dioxo-2,3-dihydro-1H-inden-5-yl}sulfonyl)-1,3-dioxo-2,3-dihydro-1H-indene-2-carboxamide] | 33% | 69% | –
12% | 21% | CC(C)[C@@H](N)C(=O)C1C(=O)c2ccc(Oc3ccc4c(c3)C(=O)C(C(=O)[C@H](N)C(C)C)C4=O)cc2C1=O (stereo partly drawn) [Example 351, 2-[(2R)-2-amino-3-methylbutanoyl]-5-({2-[(2R)-2-amino-3-methylbutanoyl]-1,3-dioxo-2,3-dihydro-1H-inden-5-yl}oxy)-2,3-dihydro-1H-indene-1,3-dione] | – | – | –

Compound | inhibition at 1 µM | inhibition at 3 µM | inhibition at 5 µM | inhibition at 10 µM | pIC50
Cc1ccccc1C(=O)CCC(=O)C1C(=O)c2ccc(C(=O)c3ccc4c(c3)C(=O)C(C(=O)CCC(=O)c3ccccc3C)C4=O)cc2C1=O (centres unmarked) [Example 252, 2-[4-(2-methylphenyl)-4-oxobutanoyl]-5-{2-[4-(2-methylphenyl)-4-oxobutanoyl]-1,3-dioxo-2,3-dihydro-1H-indene-5-carbonyl}-2,3-dihydro-1H-indene-1,3-dione] | 14% | 37% | – | – | 5.52
CC(C)(C)OC(=O)NCCCC(=O)C1C(=O)c2ccc(S(=O)(=O)c3ccc4c(c3)C(=O)C(C(=O)CCCNC(=O)OC(C)(C)C)C4=O)cc2C1=O (centres unmarked) [Example 387, tert-butyl N-[4-(5-{[2-(4-{[(tert-butoxy)carbonyl]amino}butanoyl)-1,3-dioxo-2,3-dihydro-1H-inden-5-yl]sulfonyl}-1,3-dioxo-2,3-dihydro-1H-inden-2-yl)-4-oxobutyl]carbamate] | 16% | 52% | – | – | –
